# Reference: patent US20230293519A1, “INTEGRIN INHIBITORS AND USES THEREOF IN COMBINATION WITH OTHER AGENTS” (Pliant Therapeutics, Inc., priority 2021, published 2023)
# Entries after “also recorded” stand apart in the source; their conditions may differ.
# How the values were obtained:
# [1] = SAD and MAD first-in-human studies, plasma LC-MS/MS; assay type: in vivo; conditions: healthy subjects
# Experimental: Healthy human subjects (N=85) were selected for single ascending dose (SAD) and multiple ascending dose (MAD) first-in-human studies. A solution for oral administration was prepared, containing 10 mg/mL of compound 5 in a 50:50 mixture of ORA-SWEET® SF (PERRIGO®, Allegan, Michigan) and sterile water for irrigation. Sufficient solution was administered orally to the subjects to provide between 15 mg/dose and 75 mg/dose of compound 5 in the SAD study and between 10 mg/dose and 40 mg/dose of compound 5 in the MAD study. Concentrations of compound 5 were measured in the subjects by obtaining a sample of plasma from each subject at desired intervals, and subjecting the plasma to liquid chromatography-mass spectrometry-mass spectrometry (LC-MS/MS), with quantification using a calibration curve determined from a range of solutions at standardized concentrations. The lower limit of quantitation (LLOQ) of the assay was 1 ng/mL and the calibration curve range was 1 to 500 ng/mL.
# pSMAD2:SMAD2 ratio = pSMAD2:SMAD2 ratio in BAL of healthy human subjects; assay type: in vivo; conditions: subjects with Cmax above 700 ng/mL; Day 7 vs baseline (Day -1)
# Experimental: In order to evaluate the change of pSMAD2 as a biomarker of TGF-β activity following administration of an integrin inhibitor, and to determine a therapeutically effective dosage and an effective blood plasma Cmax of the integrin inhibitor, healthy subjects were administered compound 5, a dual selective αvβ6/avβ1-integrin inhibitor, and the corresponding Cmax levels and decrease in phosphorylation levels and were determined.
# Healthy non-smoking adult males without history of lung disease were selected as subjects and were randomized into 4 cohorts. Broncoalevaolar lavage samples were obtained from all subjects 1 day prior to start of treatment. Cohorts 1 and 2 were administered 20 mg of a compound daily, wherein 3 subjects were administered the dual selective αvβ6/αvβ1-integrin inhibitor (compound 5) per every 1 subject receiving a placebo compound. Cohorts 3 and 4 were administered 40 mg of a compound daily, wherein 3 subjects were administered the dual selective αvβ6/αvβ1- integrin inhibitor (compound 5) per every 1 subject receiving a placebo compound. BAL samples and blood samples were taken from all subjects on Day -1 (baseline) and on Day 7 (end of treatment).
# αvβ6 = αvβ6 (Homo sapiens (Human), UniProt P06756+P18564); test: [18F]FP-R01-MG-F2 PET/CT target engagement in participants with IPF; assay type: in vivo
# Experimental: The aim of this Example is to assess target engagement of the disclosed compounds to αvβ6 in human participants with IPF using [^18F]FP-R01-MG-F2 PET/computerized tomography (CT) imaging.
# This Example was conducted as an open-label, single-dose (60 mg, 120 mg, 240 mg or 320 mg) clinical trial evaluating αvβ6 receptor occupancy in the lungs, safety, and pharmacokinetics of Compound #5 in subjects with IPF. To date, 4 participants have completed the study. Each of these 4 participants was undergoing a pre-existing course of therapy using one of the SoC (Standard of Care) compounds, nintedanib. These participants continued their pre-existing nintedanib therapy throughout this study. Knottin tracer uptake kinetics were compared pre- and post-dose of the disclosed compound, as measured by standardized uptake values (SUVs) and parameters estimated from kinetic modeling in regions-of-interest on dynamic [^18F]FP-R01-MG-F2 PET/CT scans. […] Receptor occupancy was estimated from the output of the two-compartment model (VT, the […]) using standard equations and fitting algorithms, and corrections for VND (non-displaceable tracer binding). For example, in FIG. 10, the data points, shown as circles, are modeled by the following formula: […]
# Five subjects with IPF were enrolled: Subject A received a single dose of 60 mg of the disclosed compound followed by a post-dose scan. Subject B received two doses of the disclosed compound separated by two weeks, 120 mg and 240 mg, each followed by a post-dose scan. Subject C received two doses of the disclosed compound separated by two weeks, 240 mg and 320 mg, each followed by a post-dose scan. Subject D received a single dose of 320 mg of the disclosed compound followed by a post-dose scan.
# COL1A1 expression = test: PCLS from human IPF lung tissue, 7 days: COL1A1 expression; assay type: cell-based
# Experimental: PCLS from 5-7 idopathic pulmonary fibrosis (IPF) lung tissue samples were cultured for seven days with one of: DMSO; Compound 5 at 200 nM; nintedanib at 75 nM; pirfenidone at 50 µm; a combination of Compound 5 at 200 nM and nintedanib at 75 nM; a combination of Compound 5 at 200 nM and pirfenidone at 50 µm; or an Alk5 inhibitor at 1 µm. […] FIG. 6D is a bar graph showing relative expression of COL1A1 in precision cut lung slices (PCLS) from idopathic pulmonary fibrosis (IPF) lung tissue upon exposure to Comopund 5, clinical standard of care compounds nintedanib (Nin) and pirfenidone (Pirf), and an ALK5 inhibitor, all versus DMSO control.
# PCLS from a single IPF lung tissue sample were cultured for seven days with Compound 5 at concentrations of 200 pM, 2 nM, 60 nM, 200 nM, and 1 µM, along with 0.1% DMSO control and an Alk5 inhibitor at 1 µM. […] COL1A1 expression is also graphed for the PCLS in the presence of 0.1% DMSO control, and an Alk5 inhibitor at 1 µM.
# [2] = Phase 2a trial in IPF: pharmacokinetics; assay type: in vivo, human; conditions: IPF participants
# Description: Based on sparse sampling, overall Compound 5 pharmacokinetics and % unbound in IPF were consistent with that of previous studies. […] Overall % unbound was ~0.3 to 0.5%. Full PK curve will be predicted using population PK model to project AUC0_24 and Cmax.
# Chain of αvβ6 (P06756 31-889): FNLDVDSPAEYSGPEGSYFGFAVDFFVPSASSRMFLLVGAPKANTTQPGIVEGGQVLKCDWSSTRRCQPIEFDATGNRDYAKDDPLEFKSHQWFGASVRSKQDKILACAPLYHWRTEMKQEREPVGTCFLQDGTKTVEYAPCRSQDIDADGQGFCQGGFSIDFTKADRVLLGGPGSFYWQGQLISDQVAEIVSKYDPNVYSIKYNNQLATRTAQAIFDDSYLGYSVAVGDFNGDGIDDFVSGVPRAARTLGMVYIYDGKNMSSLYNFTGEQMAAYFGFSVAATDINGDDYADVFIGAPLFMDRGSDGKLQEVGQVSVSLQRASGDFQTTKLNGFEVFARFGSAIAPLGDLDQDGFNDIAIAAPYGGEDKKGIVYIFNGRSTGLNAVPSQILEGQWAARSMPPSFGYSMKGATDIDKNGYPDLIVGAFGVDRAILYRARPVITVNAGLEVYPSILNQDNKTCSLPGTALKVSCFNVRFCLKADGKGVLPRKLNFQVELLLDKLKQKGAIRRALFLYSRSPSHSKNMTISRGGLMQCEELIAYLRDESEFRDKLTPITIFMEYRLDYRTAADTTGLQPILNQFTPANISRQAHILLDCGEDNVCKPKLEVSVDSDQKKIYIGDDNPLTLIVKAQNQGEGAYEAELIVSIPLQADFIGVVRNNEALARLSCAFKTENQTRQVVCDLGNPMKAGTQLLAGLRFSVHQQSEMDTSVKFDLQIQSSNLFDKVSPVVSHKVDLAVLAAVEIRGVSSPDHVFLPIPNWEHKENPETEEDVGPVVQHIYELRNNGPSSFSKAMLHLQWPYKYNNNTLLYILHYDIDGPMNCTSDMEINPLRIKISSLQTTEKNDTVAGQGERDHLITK
# Chain of αvβ6 (P06756 890-1048 partner): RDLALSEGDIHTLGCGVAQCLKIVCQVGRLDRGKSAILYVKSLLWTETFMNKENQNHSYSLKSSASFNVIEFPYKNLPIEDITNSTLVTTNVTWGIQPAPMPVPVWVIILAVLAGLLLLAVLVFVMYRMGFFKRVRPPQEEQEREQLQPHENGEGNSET
# Chain of αvβ6 (P18564 22-788): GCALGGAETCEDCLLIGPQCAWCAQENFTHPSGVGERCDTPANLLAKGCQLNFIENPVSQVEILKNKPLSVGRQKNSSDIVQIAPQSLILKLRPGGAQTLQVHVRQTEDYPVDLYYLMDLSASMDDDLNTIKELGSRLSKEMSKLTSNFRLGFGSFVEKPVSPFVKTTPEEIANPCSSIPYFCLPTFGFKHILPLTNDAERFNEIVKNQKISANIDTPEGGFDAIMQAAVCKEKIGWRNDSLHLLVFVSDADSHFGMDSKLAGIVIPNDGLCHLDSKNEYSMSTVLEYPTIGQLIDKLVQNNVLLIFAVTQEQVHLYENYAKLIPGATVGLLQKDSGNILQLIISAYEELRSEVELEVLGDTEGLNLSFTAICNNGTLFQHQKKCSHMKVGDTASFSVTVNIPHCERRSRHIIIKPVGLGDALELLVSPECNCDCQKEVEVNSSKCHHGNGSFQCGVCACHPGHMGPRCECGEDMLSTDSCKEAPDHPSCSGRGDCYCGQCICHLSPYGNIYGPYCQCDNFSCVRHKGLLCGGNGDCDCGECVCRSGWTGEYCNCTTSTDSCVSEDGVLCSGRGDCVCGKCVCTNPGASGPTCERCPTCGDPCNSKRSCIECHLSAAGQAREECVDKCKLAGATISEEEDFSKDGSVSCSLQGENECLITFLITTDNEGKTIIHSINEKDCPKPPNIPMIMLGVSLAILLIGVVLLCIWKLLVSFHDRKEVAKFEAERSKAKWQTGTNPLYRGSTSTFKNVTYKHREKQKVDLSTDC
smiles,measurement,setting,value
"COCCN(CCCCc1ccc2c(n1)NCCC2)CC[C@H](Nc1ncnc2ccccc12)C(=O)O [Compound 5, (S)-4-((2-methoxyethyl)(4-(5,6,7,8-tetrahydro-1,8-naphthyridin-2-yl)butyl)amino)-2-(quinazolin-4-ylamino)butanoic acid]",oral bioavailability and pharmacokinetics,[1],good oral bioavailability and pharmacokinetics
same,reduction in pSMAD2:SMAD2 ratio in BAL,pSMAD2:SMAD2 ratio,≥ 50%
same,decrease in volume of distribution of the knottin radiotracer in the lungs,αvβ6; 60 mg dose,approximately 50%
same,decrease in volume of distribution of the knottin radiotracer in the lungs,αvβ6; 240 and 320 mg doses,greater than 95%
same,%DeltaVt,"αvβ6; Subject A00, 60 mg single dose",52.23%
same,"Vs (Vt corrected for non-displaceable binding, VND=0.66)","αvβ6; Subject A00, 60 mg single dose",1.18
same,Vt (post-dose),"αvβ6; Subject A00, 60 mg single dose",1.84
same,%DeltaVt,"αvβ6; Subject B120, 120 mg",58.76%
same,"Vs (Vt corrected for non-displaceable binding, VND=0.66)","αvβ6; Subject B120, 120 mg",0.99
same,Vt (post-dose),"αvβ6; Subject B120, 120 mg",1.65
same,%DeltaVt,"αvβ6; Subject B240, 240 mg",97.56%
same,"Vs (Vt corrected for non-displaceable binding, VND=0.66)","αvβ6; Subject B240, 240 mg",0.06
same,Vt (post-dose),"αvβ6; Subject B240, 240 mg",0.72
same,%DeltaVt,"αvβ6; Subject C240, 240 mg",70.91%
same,"Vs (Vt corrected for non-displaceable binding, VND=0.66)","αvβ6; Subject C240, 240 mg",0.32
same,Vt (post-dose),"αvβ6; Subject C240, 240 mg",0.98
same,%DeltaVt,"αvβ6; Subject C320, 320 mg",82.73%
same,"Vs (Vt corrected for non-displaceable binding, VND=0.66)","αvβ6; Subject C320, 320 mg",0.19
same,Vt (post-dose),"αvβ6; Subject C320, 320 mg",0.85
same,%DeltaVt,"αvβ6; Subject D320, 320 mg",93.57%
same,"Vs (Vt corrected for non-displaceable binding, VND=0.66)","αvβ6; Subject D320, 320 mg",0.09
same,Vt (post-dose),"αvβ6; Subject D320, 320 mg",0.75
same,αvβ6 receptor occupancy,αvβ6; lungs of IPF participants,about 100%
same,concentration at which the exposure response saturates,αvβ6; measured drug exposure at 4 hours,about 100 nM
same,reduction of COL1A1 expression,"COL1A1 expression; Compound 5 200 nM, nintedanib 75 nM, pirfenidone 50 µM, 5-7 IPF lungs",43%
same,concentration with significant reduction of COL1A1 expression,"COL1A1 expression; single IPF lung, 200 pM to 1 µM tested",≥ 2 nM
same,reduction in COL1A1 expression at concentrations with significant effect,"COL1A1 expression; single IPF lung, Compound 5 ≥ 2 nM",≥ 47%
same,dose proportionality of plasma concentrations,"[2]; 40, 80, 160 mg once daily",generally dose proportional increases; also recorded: increased approximately proportionally with dose
same,fraction unbound,"[2]; human, in vivo",0.003 to 0.005
